PubChem BioAssay (NCI)
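All cell lines were grown in 96-well plates and treated with compound for 48 hours. At the TGI there is no net growth.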

Columns and labels:
Assay in all cases: NCI tumour cell line growth inhibition, 48 h
LOX IMVI melanoma = tested on: LOX IMVI melanoma
HS 578T breast = tested on: HS 578T breast
DU-145 prostate = tested on: DU-145 prostate
KM12 colon = tested on: KM12 colon
NCI-H460 lung = tested on: NCI-H460 lung
A549 NSCLC = tested on: A549 NSCLC
SN12C renal = tested on: SN12C renal
K-562 leukemia = tested on: K-562 leukemia
NCI/ADR-RES ovarian = tested on: NCI/ADR-RES ovarian
OVCAR-5 ovarian = tested on: OVCAR-5 ovarian
NCI-H23 lung = tested on: NCI-H23 lung
NCI-H226 lung = tested on: NCI-H226 lung
SK-MEL-2 melanoma = tested on: SK-MEL-2 melanoma
MCF7 breast = tested on: MCF7 breast
A498 renal = tested on: A498 renal
MDA-N = tested on: MDA-N
RPMI-8226 leukemia = tested on: RPMI-8226 leukemia
NCI-H522 lung = tested on: NCI-H522 lung

SMILES	TGI (LOX IMVI melanoma) [µM]	TGI (HS 578T breast) [µM]	TGI (DU-145 prostate) [µM]	TGI (KM12 colon) [µM]	TGI (NCI-H460 lung) [µM]	TGI (A549 NSCLC) [µM]	TGI (SN12C renal) [µM]	TGI (K-562 leukemia) [µM]	TGI (NCI/ADR-RES ovarian) [µM]	TGI (OVCAR-5 ovarian) [µM]	TGI (NCI-H23 lung) [µM]	TGI (NCI-H226 lung) [µM]	TGI (SK-MEL-2 melanoma) [µM]	TGI (MCF7 breast) [µM]	TGI (A498 renal) [µM]	TGI (MDA-N) [µM]	TGI (RPMI-8226 leukemia) [µM]	TGI (NCI-H522 lung) [µM]
COC(=O)[C@]12CSC[C@H]1C[C@H](c1ccc(N(C)C)cc1)N2	> 100	> 100	> 100	> 100	> 100	> 100	> 100	> 100	> 100	> 100	> 100	> 100	> 100	> 100	> 100	> 100	> 31.6	
CC(C)N(c1cc2c(cc1F)c(=O)c(C(=O)O)cn2-c1ccc(N2CCN(C)CC2)cn1)C(C)C	> 100	> 100	> 100	> 100	> 100	> 100	> 100	> 100	> 100	> 100	> 100	> 100		> 100	> 100	> 100	> 100	
COc1ccccc1N1C(=O)/C(=C\c2cc(OC)c(OC)c(OC)c2)S(=O)(=O)C1c1ccccc1 (stereo not drawn)	> 100	> 100	> 100	> 100	> 100	> 100	> 100	> 100	72.1		> 100	> 100	> 100	> 100	> 100	48.3	57.1	50.7
COc1ccccc1CNCc1nc2ccccc2[nH]1	> 100	> 100	> 100	> 100	> 100	> 100	> 100	> 100	> 100	> 100	> 100	> 100	> 100	> 100	> 100	> 100	> 100	> 100
Nc1nncs1	> 5000	> 5000	> 5000	> 5000	3750	4980	> 5000	> 5000	> 5000	> 4450	> 4730	> 5000	> 5000	> 5000	> 5000	> 5000	> 5000	4690
CC(=C(C(=O)O)C(=O)O)c1cc(-c2cccs2)cc(-c2ccc(Cl)cc2)c1O	29.6	> 90.7	30.6	24.2	37.3	> 80.8	30.5	> 53.6	57.2	> 86.8	32.6	> 72.2	> 88.6	17.9	30.8	31.4	15.6	33.3
COC(=O)c1c(C(=O)OC)c(C(c2ccccc2)c2ccccc2)n(-c2ccccc2)c1Cl		> 10	> 10	> 10	> 10	> 10	> 10	> 10	> 10	> 10	> 10	> 10		> 10	> 10	> 10	> 10	
O=c1[nH]n(Cc2ccccc2CCl)c2ccc([N+](=O)[O-])cc12	> 100	> 100	> 100	> 100	95.8	> 100	> 100	> 100	> 100	> 100	> 100	> 100	> 100	> 100	> 100	> 100	> 100	63.2
COC(=O)/C=C(\S/C(=C(/c1ccc(OC)cc1)n1cc(C(=O)OC)c(C(=O)OC)n1)c1ccc(OC)cc1)C(=O)OC	25.4	> 100	40.3	> 100	> 100	> 100	51.4	> 100	> 100	69.7	> 100	> 100	> 100	> 100	> 100	> 100	> 100	
N#CC1=C(N2CCOCC2)CCC1	> 100	> 100	> 100	> 100		> 100	> 100	> 100	> 100	> 100	> 100	> 100	> 100	> 100	> 100	> 100	> 100	> 100
NC(=O)NC(=O)c1ccc(NC(=O)CBr)cc1	2.26	7.37	6.92	10.1	9.74	> 32.6	1.18	3.92	7.53	7.34	4.59	10.2	4.61	4.9	36	5	3.59	0.277
COC(=O)/C(C#N)=C(\Nc1ccccc1)N1CCCCC1	> 100	> 100	> 100		> 100	> 100	> 100	> 100	> 100	> 100	> 100	> 100	> 100	> 100	> 100	> 100	> 100	> 100
COc1cc(/C=C2\N=C(c3ccccc3)N(/N=C/c3cc4cc(C)ccc4nc3Cl)C2=O)cc(OC)c1OC	> 100	88.8	80.6	> 100	> 100	> 100	> 100	> 100	> 100	> 100			48	> 100	> 100	48.6	42.8	
C=C1CC(COc2ccc3ccc(=O)oc3c2)(c2ccccc2)OC1=O (stereo not drawn)	2.57	> 23.7	7.21	13.5	28	27.8	8.23	2.45	12.4	13	3.5	12.4	4.18	2.78		3.85	0.434	2.29
